Results published in ChEMBL document CHEMBL1129064, “Design and synthesis of 2',3'-dideoxy-2',3'-didehydro-beta-L-cytidine (beta-L-d4C) and 2',3'-dideoxy 2',3'-didehydro-beta-L-5-fluorocytidine (beta-L-Fd4C), two exceptionally potent inhibitors of human hepatitis B virus (HBV) and potent inhibitors of human immunodeficiency virus (HIV) in vitro” (1996).

Test system: CCRF-CEM
Experiment: In vitro concentration required to inhibit 50% of CEM cell growth
Type: functional
Details: Homo sapiens, read-out: ED50 (the source's name)

Row | SMILES | EC50 [µM]
1 | Nc1ccn([C@H]2C=C[C@@H](CO)O2)c(=O)n1 | 20
2 | Nc1nc(=O)n([C@@H]2C=C[C@H](CO)O2)cc1F [ELVUCITABINE] | 7
3 | Nc1ccn([C@@H]2CC[C@H](CO)O2)c(=O)n1 | 10
4 | Nc1ccn([C@@H]2C=C[C@H](CO)O2)c(=O)n1 | 22
5 | Nc1nc(=O)n([C@@H]2CS[C@H](CO)O2)cc1F [EMTRICITABINE] | 50
6 | Nc1nc(=O)n([C@@H]2CC[C@H](CO)O2)cc1F | 67

Test system: CCRF-CEM
Experiment: In vitro concentration required to decrease 50% of mitochondrial DNA content in CEM cells
Type: functional
Details: Homo sapiens, read-out: ED50 (the source's name)

Row | SMILES | EC50 [µM]
7 | Nc1ccn([C@H]2C=C[C@@H](CO)O2)c(=O)n1 | > 20
8 | Nc1nc(=O)n([C@@H]2C=C[C@H](CO)O2)cc1F [ELVUCITABINE] | > 100
9 | Nc1ccn([C@@H]2CC[C@H](CO)O2)c(=O)n1 | 0.022
10 | Nc1ccn([C@@H]2C=C[C@H](CO)O2)c(=O)n1 | 2
11 | Nc1nc(=O)n([C@@H]2CS[C@H](CO)O2)cc1F [EMTRICITABINE] | > 50
12 | Nc1nc(=O)n([C@@H]2CC[C@H](CO)O2)cc1F | > 100

Test system: HepG2
Experiment: Concentration required to inhibit 50% of extracellular circular replication of HBV DNA using 2215 cell line
Type: functional
Details: Homo sapiens, read-out: ED50 (the source's name)

Row | SMILES | EC50 [µM]
13 | Nc1ccn([C@H]2C=C[C@@H](CO)O2)c(=O)n1 | 0.01
14 | Nc1nc(=O)n([C@@H]2C=C[C@H](CO)O2)cc1F [ELVUCITABINE] | 0.002
15 | Nc1ccn([C@@H]2CC[C@H](CO)O2)c(=O)n1 | 5.2
16 | Nc1ccn([C@@H]2C=C[C@H](CO)O2)c(=O)n1 | 3
17 | Nc1nc(=O)n([C@@H]2CS[C@H](CO)O2)cc1F [EMTRICITABINE] | 0.017
18 | Nc1nc(=O)n([C@@H]2CC[C@H](CO)O2)cc1F | 0.055

Test system: HepG2
Experiment: Concentration required to inhibit 50% of intracellular circular replication of HBV DNA using 2215 cell line
Type: functional
Details: Homo sapiens, read-out: ED50 (the source's name)

Row | SMILES | EC50 [µM]
19 | Nc1ccn([C@H]2C=C[C@@H](CO)O2)c(=O)n1 | 0.008
20 | Nc1nc(=O)n([C@@H]2C=C[C@H](CO)O2)cc1F [ELVUCITABINE] | 0.002
21 | Nc1ccn([C@@H]2CC[C@H](CO)O2)c(=O)n1 | 6.2
22 | Nc1nc(=O)n([C@@H]2CS[C@H](CO)O2)cc1F [EMTRICITABINE] | 0.03
23 | Nc1nc(=O)n([C@@H]2CC[C@H](CO)O2)cc1F | 0.036

Test system: MT2
Experiment: Concentration required to inhibit 50% of HIV activity in MT-2 cells
Type: functional
Details: Homo sapiens, read-out: ED50 (the source's name)

Row | SMILES | EC50 [µM]
24 | Nc1ccn([C@H]2C=C[C@@H](CO)O2)c(=O)n1 | 1
25 | Nc1nc(=O)n([C@@H]2C=C[C@H](CO)O2)cc1F [ELVUCITABINE] | 0.09
26 | Nc1ccn([C@@H]2CC[C@H](CO)O2)c(=O)n1 | 1.5
27 | Nc1ccn([C@@H]2C=C[C@H](CO)O2)c(=O)n1 | 0.7
28 | Nc1nc(=O)n([C@@H]2CS[C@H](CO)O2)cc1F [EMTRICITABINE] | 2
29 | Nc1nc(=O)n([C@@H]2CC[C@H](CO)O2)cc1F | 0.5
